Source: patent US20240254564A1, “METHODS FOR PREDICTING AND TREATING CHEMORESISTANCE IN SMALL CELL LUNG CANCER PATIENTS” (MEMORIAL SLOAN-KETTERING CANCER CENTER, priority 2021, published 2024)

How the values were obtained:
[1] = test system: Lx1322 non-NE SCLC PDX from chemorelapsed tumor; experiment: In vivo treatment, tumor growth of chemorelapsed SCLC PDX Lx1322; settings: Lx1322 PDX in NSG mice; day 14; irinotecan 50 mg/kg i.p. WQ, Selinexor 10 mg/kg p.o. QDx3
Experimental: (§1) For treatments, 5-10 NOD.Cg-Prkd^scid Il2rg^tm1Wjl/SzJ (NSG) mice were engrafted per treatment arm and incubated until they reached 100-150 mm^3. At that point, mice were randomized into groups and treated with either vehicle, Cisplatin (2 mg/kg i.p. once/week), Etoposide (3 mg/kg i.p. QD×3), Selinexor (10 mg/kg p.o. QD×3), irinotecan (50 mg/kg i.p. WQ), or the combinations of cisplatin+etoposide, cisplatin+Selinexor, cisplatin+etoposide+Selinexor or irinotecan+Selinexor, at the previously mentioned doses. Mice weights and tumor volumes were measured twice a week and mice were sacrificed when tumors reached humane endpoint. All animal experiments were approved by the Memorial Sloan Kettering Cancer Center (MSKCC) Animal Care and Use Committee.

[2] = test system: Lx108-R ASCL1^high cisplatin/etoposide-resistant SCLC PDX; experiment: In vivo treatment, tumor growth of cisplatin/etoposide-resistant SCLC PDX Lx108-R; set-up: species or system mice; settings: right after chemotherapy relapse in vivo
Experimental: as §1

[3] = test system: Lx304B ASCL1^high SCLC PDX from chemorelapsed tumor; experiment: In vivo treatment, tumor growth of chemorelapsed SCLC PDX Lx304B; settings: Lx304B PDX in NSG mice; day 24; irinotecan 50 mg/kg i.p. WQ, Selinexor 10 mg/kg p.o. QDx3
Experimental: as §1

[4] = test system: AKT/mTOR pathway in H69 and H82 cell lines; experiment: Western blot of AKT/mTOR pathway activation; type: cell-based; set-up: concentration or dose not given beside the values; settings: selinexor or combinations for 7 days
Experimental: FIGS. 9A-9G show impairment of chemotherapy-induced AKT/mTOR overactivation may contribute to selinexor efficacy in combination with chemotherapy. […] Synergy plots, showing the occurrence of synergy, addition, or antagonism (green), were calculated with the HSA method using the SynergyFinder web application (2.0).
(§2) Protein extraction and western blot were performed as previously described in Gardner, E. E. et al., Cancer Cell 31: 286-299 (2017), which is incorporated by reference in its entirety herein. Antibodies for pγH2AX (#39117, Active Motif, Carlsbad, CA), pATR (#53217, Cell Signaling Technology, Danvers, MA, Danvers, MA), ATR (#13934, Cell Signaling Technology, Danvers, MA, Danvers, MA), pATM (#31068, Cell Signaling Technology, Danvers, MA, Danvers, MA), ATM (#2873, Cell Signaling Technology, Danvers, MA, Danvers, MA), pChk2 (#12298, Cell Signaling Technology, Danvers, MA, Danvers, MA), Chk2 (#2662, Cell Signaling Technology, Danvers, MA, Danvers, MA), MSH2 (#2017, Cell Signaling Technology, Danvers, MA, Danvers, MA), MLH1 (#3515, Cell Signaling Technology, Danvers, MA, Danvers, MA), XPO1 (#46249, Cell Signaling Technology, Danvers, MA, Danvers, MA), and actin (#3700, Cell Signaling Technology, Danvers, MA, Danvers, MA). Quantifications were performed with the Image Studio software (Version 3.1, LI-COR Biosciences, Lincoln, NE). Immunohistochemistry for Exportin-1 was performed with the Exportin-1 antibody #611833 from BD in TMAs including resected tumor samples form SCLC and NSCLC patients. All study subjects had provided signed informed consent for biospecimen analyses under an Institutional Review Board-approved protocol.

[5] = test system: DNA damage response pathways in H82 cells; experiment: Western blot of DNA damage sensing and repair proteins; type: cell-based
Experimental: as §2

[6] = test system: Lx33 NEUROD1^high chemonaive SCLC PDX; experiment: In vivo treatment, tumor growth of chemonaive SCLC PDX Lx33; settings: Lx33 PDX in NSG mice; day 17; cisplatin 2 mg/kg i.p. once/week, etoposide 3 mg/kg i.p. QDx3, Selinexor 10 mg/kg p.o. QDx3
Experimental: as §1

[7] = test system: Lx304 ASCL1^high chemonaive SCLC PDX; experiment: In vivo treatment, tumor growth of chemonaive SCLC PDX Lx304; settings: Lx304 PDX in NSG mice; day 14; cisplatin 2 mg/kg i.p. once/week, etoposide 3 mg/kg i.p. QDx3, Selinexor 10 mg/kg p.o. QDx3
Experimental: as §1

XPO1-KO (sgXPO1) cells = experiment: Selinexor specificity assay: viability of XPO1-expressing and XPO1-KO isogenic cells; type: cell-based; settings: XPO1-KO isogenic cell line; viability normalized to untreated
Text: HSA synergy scores for H69 Cisplatin+Selinexor and H69 Cisplatin+KPT-185 are 6.55 and 8.52, respectively. HSA synergy scores for H82 Cisplatin+Selinexor and H82 Cisplatin+KPT-185 are 12.29 and 10.68, respectively. […] The sequence of the sgXPO1 is AACCTGAACGAAATGCCTG (SEQ ID NO: 16). […] Two tailed Student's t-test was used to assess statistical significance of the differential expression between groups. p-values legend: * p<0.05, ** p<0.01, *** p<0.001.

H82 cells = experiment: Propidium iodide / annexin V apoptosis assay by flow cytometry; type: cell-based; settings: GI20 concentrations, 3 days
Experimental: Parental cells were treated with cisplatin (GI20), Selinexor (GI20) or their combination for 3 days. Alternatively, control and XPO1 CRISPR-KO cells were treated with cisplatin […] for 3 days. Then, cells were collected and stained with the APC Annexin V Apoptosis Detection Kit with PI (#640932, Biolegend, San Diego, CA) and apoptosis was analyzed by flow cytometry as previously described in Shrestha, C. L. et al., PLoS One 12: 1-17 (2017).

| Structure (SMILES) | T/C percentage values at control arm endpoint [1] | T/C percentage at experiment endpoint [2] | T/C percentage values at control arm endpoint [3] | phosphorylation of mTOR, AKT and PRAS40 / AKT/mTOR pathway activation (Western blot) [4] | activation of ATR and ATM (Western blot) ([5]; cisplatin treatment) | T/C percentage values at control arm endpoint [6] | T/C percentage values at control group endpoint [7] | cell viability after Selinexor treatment in the XPO1-KO cell line (XPO1-KO (sgXPO1) cells) | apoptosis (propidium iodide/annexin V) (H82 cells) | reduction in the expression of MSH2 and MLH1 (Western blot) ([5]; Selinexor treatment) |
| --- | --- | --- | --- | --- | --- | --- | --- | --- | --- | --- |
| CCc1c2c(nc3ccc(OC(=O)N4CCC(N5CCCCC5)CC4)cc13)-c1cc3c(c(=O)n1C2)COC(=O)[C@]3(O)CC [irinotecan] | 18.09% | 75.27% | 23.82% | induced | – | – | – | – | – | – |
| N.N.[Cl][Pt][Cl] [cisplatin] | – | – | – | Increased phosphorylation | activated | 79.73% | 67.04% | – | – | – |
| COc1cc([C@@H]2c3cc4c(cc3[C@@H](O[C@@H]3O[C@@H]5CO[C@@H](C)O[C@H]5[C@H](O)[C@H]3O)[C@H]3COC(=O)[C@H]23)OCO4)cc(OC)c1O [etoposide] | – | – | – | – | – | 63.14% | 54.59% | – | – | – |
| O=C(/C=C\n1cnc(-c2cc(C(F)(F)F)cc(C(F)(F)F)c2)n1)NNc1cnccn1 [Selinexor] | – | – | – | suppressed | – | 40.99% | 38.52% | no effect in viability | increased apoptosis | not observed |
